This note sets out measurements from patent US11739261B2, “Fluorescent probes for acid detection” (THE HONG KONG UNIVERSITY OF SCIENCE AND TECHNOLOGY, priority 2019, dated 2023).

A short description of the test: Acid response study of TPI-C in the aggregation state (PL intensity). It is filed as physicochemical. The procedure:
FIGS. 1A-1C depict PL spectra of TPI-C (10 μM in THF/hexane mixtures with fH=99%) with adding (1A) HCOOH at different concentrations; (1B) CH3COOH at different concentrations; and (1C) CF3COOH at different concentrations.
FIG. 1D is a graph of relative PL intensity (I/I0) at different acid concentrations (x-axis represents acid concentration at (a) 0 M, (b) 1×10^−20 M, (c) 1×10^−14 M and (d) 1×10^−8 M, respectively).
An acid response study of TPI-C in the aggregation state was performed first. The fluorescent intensity response of TPI-C was investigated by adding different acids with various concentrations. In general, the fluorescent intensity of TPI-C was enhanced upon adding the acid. TPI-C responded in this manner to the formic acid, acetic acid (AcOH) and trifluoroacetic acid (TFA) at concentrations as low as 10^−20 M. For the formic acid, its highest intensity enhancement was around 55% at the acid concentration level of 10^−20 M, as shown in FIG. 1A. When AcOH (1×10^−20 M, 1 μL) and TFA (1×10^−20 M, 1 μL) were added to the TPI-C solution, the intensity enhancement of TPI-C was around 120% (FIG. 1B) and 96% (FIG. 1C), respectively.

Take `CCCCCCCCn1c(-c2ccc(OC(=O)NCC)cc2)nc(-c2ccccc2)c1-c1ccccc1` [TPI-C]: the fluorescent intensity enhancement entry by setting is: (AcOH 1×10^−20 M, 1 μL added to TPI-C solution) “around 120%”; (TFA 1×10^−20 M, 1 μL added to TPI-C solution) ~96%; (formic acid 10^−20 M, TPI-C 10 μM in THF/hexane fH=99%, highest enhancement) “around 55%”. Further, for the setting “formic acid, AcOH, TFA”, the “acid concentration at which fluorescent intensity is enhanced (as low as)” value is given as 10^−20 M.
